Reference: patent US11985976B2, “Mixture of mectins and pyrethroids and uses thereof” (Valent BioSciences LLC, priority 2020, dated 2024)
Values joined by “and” are separate entries in the source; they are usually repeats but may differ in a detail not shown here. Identical values can stand only once. Like-named read-outs stand apart in the source and are kept apart here.

How the values were obtained:
[1] = tested on: Permethrin Susceptible C. quinquefasciatus; experiment: Wind tunnel bioassay, adult mosquitoes (Example 5); assay type: in vivo
Experimental: (§1) If the ratio between the OCE of the mixture and the ECE of the mixture is greater than 1, then greater than expected interactions are present in the mixture. (Gisi, Synergistic Interaction of Fungicides in Mixtures, The American Phytopathological Society, 86:11, 1273-1279, 1996).
(§2) In this bioassay, a wind tunnel bioassay was performed in New Mexico in March 2020. C. quinquefasciatus that were known to be resistant and susceptible to permethrin were used in the studies. The following solutions were applied to adult C. quinquefasciatus mosquitoes: 1) 1.5% abamectin; 2) 1.5% ivermectin; 3) 5% pyrethrum; 4) a mixture of 5% pyrethrum and 1.5% abamectin; and 5) a mixture of 5% pyrethrum and 1.5% ivermectin. Percent mortality was recorded at 15 minutes, 1 hour, 24 hours and 48 hours.

[2] = tested on: Permethrin Resistant C. quinquefasciatus; assay type: in vivo
Experimental: as §1, §2

[3] = tested on: Permethrin Susceptible A. aegypti; experiment: Wind tunnel bioassay, adult mosquitoes (Example 1); assay type: in vivo
Experimental: (§3) In this bioassay, a wind tunnel bioassay was performed in New Mexico in July 2017. Aedes aegypti that were known to be resistant (single knockdown resistance (“KDR”) mutation) and susceptible to permethrin were used in the studies. The following solutions were applied to adult A. aegypti mosquitoes: 1) 1.5% abamectin; 2) 1.5% ivermectin; 3) 2% fenpropathrin; 4) a mixture of 2% fenpropathrin and 1.5% abamectin; 5) a mixture of 2% fenpropathrin and 1.5% abamectin; 6) a mixture of 2% fenpropathrin and 1.5% ivermectin; and 7) a mixture of 2% fenpropathrin and 1.5% ivermectin.
(§4) To determine if the mixtures provided unexpected results, the observed combined efficacy (“OCE”) was divided by the expected combined efficacy (“ECE”) wherein the expected ECE is calculated by the Abbott method: ECE=A+B−(AB/100), wherein ECE is the expected combined efficacy and in which A and B are the percent control given by the single active ingredients. If the ratio between the OCE of the mixture and the ECE of the mixture is greater than 1, then greater than expected interactions are present in the mixture. (Gisi, Synergistic Interaction of Fungicides in Mixtures, The American Phytopathological Society, 86:11, 1273-1279, 1996).

[4] = tested on: Permethrin Resistant A. aegypti (single KDR mutation); assay type: in vivo, Aedes aegypti
Experimental: as §3, §4

[5] = tested on: Permethrin Susceptible C. quinquefasciatus; experiment: Wind tunnel bioassay, adult mosquitoes (Example 4); assay type: in vivo, Culex quinquefasciatus
Experimental: In this bioassay, a wind tunnel bioassay was performed in New Mexico in March 2020. C. quinquefasciatus that were known to be resistant and susceptible to permethrin were used in the studies. […] Percent mortality was recorded at 15 minutes, 1 hour, 24 hours and 48 hours.

[6] = tested on: Permethrin Resistant C. quinquefasciatus; experiment: Wind tunnel bioassay, adult mosquitoes (Example 4); assay type: in vivo, Culex quinquefasciatus
Experimental: In this bioassay, a wind tunnel bioassay was performed in New Mexico in March 2020. C. quinquefasciatus that were known to be resistant and susceptible to permethrin were used in the studies. The following solutions were applied to adult C. quinquefasciatus mosquitoes: 1) 5% permethrin; 2) a mixture of 5% permethrin and, 1.5% abamectin; 3) a mixture of 5% permethrin, 1.5% abamectin and 1% C8, 9, 10 fatty acids; 4) a mixture of 5% permethrin and 1.5% ivermectin; and 5) a mixture of 5% permethrin, 1.5% ivermectin and 1% C8, 9, 10 fatty acids. Percent mortality was recorded at 15 minutes, 1 hour, 24 hours and 48 hours.

abamectin [1.5% abamectin] was tested, and the “% Mortality” value ([1]; 1 Hr) was 73.8%, the “% Mortality” value ([1]; 15 Min) was 15% and the “% Mortality” value ([1]; 24 Hr) was 91.3%. For the same compound, the “% Mortality” value ([1]; 48 Hr) was 92.5%, the “% Mortality” value ([2]; Example 5, 1 Hr) was 26.3% and the “% Mortality” value ([2]; Example 5, 15 Min) was 0%. The “% Mortality” value ([2]; Example 5, 24 Hr) was 78.8%, the “% Mortality” value ([2]; Example 5, 48 Hr) was 80% and the “% Mortality” value [3] was 100%. The “% Mortality” value [4] was 91% and 91.3%.

With ivermectin [1.5% ivermectin] the “% Mortality” value ([1]; 1 Hr) was 62.5%, the “% Mortality” value ([1]; 15 Min) was 5% and the “% Mortality” value ([1]; 24 Hr) was 100%. For the same compound, the “% Mortality” value ([1]; 48 Hr) was 100%, the “% Mortality” value ([2]; Example 5, 1 Hr) was 42.5% and the “% Mortality” value ([2]; Example 5, 15 Min) was 0%. The “% Mortality” value ([2]; Example 5, 24 Hr) was 88.8%, the “% Mortality” value ([2]; Example 5, 48 Hr) was 91.3% and the “% Mortality” value [3] was 100%. The “% Mortality” value [4] was 64% and 62.9%.

With `CC1(C)C(C(=O)OC(C#N)c2cccc(Oc3ccccc3)c2)C1(C)C` (stereo not drawn) [2.0% fenpropathrin, fenpropathrin] the “% Mortality” value [3] was 99.6% and the “% Mortality” value [4] was 76% and 75.8%.

With `CC1(C)C(C=C(Cl)Cl)C1C(=O)OCc1cccc(Oc2ccccc2)c1` (stereo not drawn) [5% permethrin, permethrin] the “% Mortality” value ([5]; 1 Hr) was 100%, the “% Mortality” value ([5]; 15 Min) was 65% and the “% Mortality” value ([5]; 24 Hr) was 100%. The “% Mortality” value ([5]; 48 Hr) was 100%, the “% Mortality” value ([6]; 1 Hr) was 78.8% and the “% Mortality” value ([6]; 15 Min) was 0%. The “% Mortality” value ([6]; 24 Hr) was 65% and the “% Mortality” value ([6]; 48 Hr) was 66.3%.
